In patent publication US20080044484A1, “Use of polymeric nanoparticles for vaccine delivery” (THE REGENTS OF THE UNIVERSITY OF CALIFORNIA, priority 2004, published 2008):

Legend:
LnCap (HLA-A2+) = test: LDH-release cytotoxicity assay of STEAP-specific CTL against prostate cancer cell line; type: cell-based, human; settings: CTL specific for the peptide; 4-hour LDH-release assay
Experimental: (§1) It was tested whether the STEAP-derived peptides can induce potent CTL capable of recognizing and killing prostate cancer cells in vitro. CTL lines selected for their ability to lyse peptide-pulsed target cells were used as effectors in LDH-release cytotoxicity assays against the cancer cell lines. The HLA-A2+ cancer cell line LnCAP was used, with the HLA-A2−negative cancer cell line DU145 as a control (Table 29).

DU145 (HLA-A2−) = test: LDH-release cytotoxicity assay of STEAP-specific CTL against HLA-A2-negative control cell line; type: cell-based, human; settings: CTL specific for the peptide; 4-hour LDH-release assay
Experimental: as §1

[1] = system: K562-A2 cells pulsed with STEAP peptide; test: Blocking of CTL lysis with antibodies BB7.2 / IVA12, LDH-release assay; type: cell-based, human; settings: for Percent LDH released from K562-A2 pulsed +IVA12: anti-HLA class II antibody IVA12 added to peptide-pulsed targets before 4-hour LDH-release assay; for Percent LDH released from K562-A2 pulsed +BB7.2: anti-HLA-A2 antibody BB7.2 added to peptide-pulsed targets before 4-hour LDH-release assay
Excerpt: As an additional control the anti-HLA class II antibody IVA12 was used. With these experiments, it was confirmed that the STEAP-specific CTL can recognize and kill target cells in a class I-restricted fashion (Table 30).

[2] = system: K562-A2 cells pulsed with STEAP peptide; test: In vitro induction of STEAP peptide-specific CTL, LDH-release cytotoxicity assay; settings: for Percent LDH released from K562-A2 pulsed with peptide: K562-A2 pulsed with corresponding STEAP peptide 2 hours at 37° C.; for Percent LDH released from K562-A2 pulsed with peptide / Percent LDH released from K562-A2: CTL specific for the peptide, 4-hour LDH-release assay; for Induction of peptide-specific CTL: in vitro immunization of PBMC; for Percent LDH released from K562-A2: non-pulsed K562-A2 targets
TAP (human) = TAP (human) (UniProt Q03518); test: cell-based or functional assay
Chain of TAP (human) (Q03518 whole entry, chain 1 of 2): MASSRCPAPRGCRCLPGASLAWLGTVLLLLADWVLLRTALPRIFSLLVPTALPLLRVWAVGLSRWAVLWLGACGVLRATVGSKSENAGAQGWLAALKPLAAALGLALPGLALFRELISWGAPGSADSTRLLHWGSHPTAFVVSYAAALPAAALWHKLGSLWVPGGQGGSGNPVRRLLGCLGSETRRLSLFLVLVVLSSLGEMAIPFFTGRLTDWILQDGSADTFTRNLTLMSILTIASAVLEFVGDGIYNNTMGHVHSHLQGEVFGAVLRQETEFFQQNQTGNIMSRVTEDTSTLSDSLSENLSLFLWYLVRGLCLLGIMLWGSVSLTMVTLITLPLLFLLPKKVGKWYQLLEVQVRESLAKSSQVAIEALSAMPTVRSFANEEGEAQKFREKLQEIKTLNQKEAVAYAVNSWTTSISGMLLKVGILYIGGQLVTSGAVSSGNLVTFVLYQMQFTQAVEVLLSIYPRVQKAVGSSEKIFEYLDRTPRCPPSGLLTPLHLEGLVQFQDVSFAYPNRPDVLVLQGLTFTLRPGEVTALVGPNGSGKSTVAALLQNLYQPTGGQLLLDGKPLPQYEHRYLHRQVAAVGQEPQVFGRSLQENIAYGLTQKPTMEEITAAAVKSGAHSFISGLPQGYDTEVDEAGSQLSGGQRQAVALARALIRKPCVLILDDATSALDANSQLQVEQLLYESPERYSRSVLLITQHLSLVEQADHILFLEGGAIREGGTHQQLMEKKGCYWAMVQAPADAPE
Chain of TAP (human) (Q03519 whole entry, chain 2 of 2, further chain): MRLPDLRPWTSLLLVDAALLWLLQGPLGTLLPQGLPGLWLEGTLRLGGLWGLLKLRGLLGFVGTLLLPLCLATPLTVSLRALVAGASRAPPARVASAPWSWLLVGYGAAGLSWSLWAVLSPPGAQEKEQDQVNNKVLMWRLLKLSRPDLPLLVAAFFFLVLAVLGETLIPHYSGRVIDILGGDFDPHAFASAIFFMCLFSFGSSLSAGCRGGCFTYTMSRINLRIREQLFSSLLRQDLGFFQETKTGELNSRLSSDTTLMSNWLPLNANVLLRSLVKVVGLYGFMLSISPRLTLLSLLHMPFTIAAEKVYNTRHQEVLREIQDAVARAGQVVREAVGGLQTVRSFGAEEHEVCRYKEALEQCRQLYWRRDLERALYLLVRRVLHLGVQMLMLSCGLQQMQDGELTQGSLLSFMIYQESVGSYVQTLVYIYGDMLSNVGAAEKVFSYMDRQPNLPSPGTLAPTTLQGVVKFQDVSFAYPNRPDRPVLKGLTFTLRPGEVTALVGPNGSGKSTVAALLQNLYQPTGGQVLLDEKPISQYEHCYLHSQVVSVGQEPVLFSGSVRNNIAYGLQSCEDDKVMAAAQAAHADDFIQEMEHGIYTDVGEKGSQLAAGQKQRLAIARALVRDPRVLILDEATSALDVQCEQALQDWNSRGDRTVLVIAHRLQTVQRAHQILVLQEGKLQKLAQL

T2 cells [3] = test: IFNγ release by CTL (ELISA) after incubation with peptide-loaded T2 cells; type: cell-based, human; settings: CTL elicited with the corresponding HER2/neu peptide, 20 h, 10^5 CTL/well
Experimental: In interferon gamma-release assays, 10^5 HER2/neu-specific CTL were co-incubated with 10^5 peptide-loaded T2 cells for 20 hours at 37° C. The concentrations of human interferon gamma in co-cultured supernatants were then determined by ELISA.

[4] = system: breast cancer cells MDA-MB-231; test: IFNγ release by CTL (ELISA) after incubation with peptide-loaded MDA-MB-231 cells; type: cell-based, human; settings: CTL elicited with the corresponding HER2/neu peptide, 20 h, 10^5 CTL/well
Experimental: In interferon gamma release assays, 10^5 HER2/neu-specific CTL were co-incubated with 10^5 peptide-loaded tumor cells for 20 hours at 37° C. The concentration of human interferon gamma in co-cultured supernatants was then determined by ELISA.

[5] = system: ICP47-transfected cells MCF7; test: Functional blockade of TAP by ICP47, 51Cr-release from peptide-loaded cells; type: cell-based, human; settings: CTL reactive against the corresponding HER2/neu peptide, 3 days after peptide loading, 6-hour assay
Excerpt: Another aspect in these studies was to determine the mechanisms of enhancement of the antigen presentation by the fusion peptides in human tumor cell lines. Therefore, a new test system was developed utilizing the Herpes Simplex virus (HSV) protein ICP47. ICP47 is a cytoplasmic protein, which interferes with antigen presentation by physically associating with TAP within the cell and inhibiting peptide transport across the ER-membrane. By transfecting the ICP47 gene into several cancer cell lines a novel system for screening different fusion peptides for TAP-independent translocation of peptide antigens through the ER-membrane was generated.
The expression of these antigens was detected by ^51Cr-release assays.

HLA-A2.1 (human) = test: cell-based or functional assay
T2 cells [6] = test: 51Cr-release assay, T2 cells loaded or pulsed with signal sequence constructs, at periods after loading; type: cell-based, human; settings: loading into the cytosol; days 1-8 after loading
Excerpt: By “loading” of the fusion peptides into the cytosol of T2 cells, cancer cells and dendritic cells is meant use of a technology called “osmotic lysis of pinocytic vesicles.” T2 cells were exposed to hypertonic medium containing the peptide constructs. Pinocytic vesicles form in this medium, and because of their increased internal osmotic pressure, they break in the cytosol when the cells are placed in hypotonic culture medium.
The induction of CTL in human PBMC was monitored in a conventional ^51Cr-labeling release assay. Briefly, peptide-pulsed TAP^−/HLA-A2.1^+ human T2 cells were incubated with 10 μg of HER2/neu peptides or the MART-1 control peptide for 90 min during labeling with ^51Cr. After washing, the target cells were added to serially diluted effectors in 96-well microplates. After a 6-h incubation at 37° C., supernatants were harvested and counted in a gamma counter. Results are expressed as the percentage of specific lysis and determined as follows: [(experimental cpm−spontaneous cpm)/(maximum cpm−spontaneous cpm)]×100.
Peptide-loaded or pulsed T2 cells were tested for their ability to present HER2/neu peptides at different periods of time after loading or pulsing.

Row | Substance | Percent LDH released from LnCap (HLA-A2+) (LnCap (HLA-A2+)) [%] | Percent LDH released from DU145 (HLA-A2−) (DU145 (HLA-A2−)) [%] | Percent LDH released from K562-A2 pulsed +IVA12 [1] [%] | Percent LDH released from K562-A2 pulsed +BB7.2 [1] [%] | Percent LDH released from K562-A2 pulsed with peptide [2] [%] | Induction of peptide-specific CTL [2] | Percent LDH released from K562-A2 [2] [%] | other results
1 | YLPGVIAAV [STEAP130-138 - 9V] | 68 | −2 | 47 | 1 | 53 | induced potent peptide-specific CTL | 1 | –
2 | YLWGVIAAI [STEAP130-138 - 3W] | 69 | −2 | 64 | 5 | 63 | induced potent peptide-specific CTL | 4 | –
3 | Herpes Simplex virus (HSV) protein ICP47 (from UniProt P03170 1-88) | – | – | – | – | – | – | – | Percent 51Cr released from MCF7-ICP47 (CTL369-377, E:T 20:1; 29 for untransfected MCF7) (percent 51Cr released) (TAP (human)): 3; Percent 51Cr released from MCF7-ICP47 (CTL369-377, E:T 40:1; 62 for untransfected MCF7) (percent 51Cr released) (TAP (human)): 3; Percent 51Cr released from MCF7-ICP47 (CTL654-662, E:T 20:1; 31 for untransfected MCF7) (percent 51Cr released) (TAP (human)): 2; Percent 51Cr released from MCF7-ICP47 (CTL654-662, E:T 40:1; 74 for untransfected MCF7) (percent 51Cr released) (TAP (human)): 4
4 | LLSFFFAVL (listed as Homo sapiens) [STEAP166-174] | 65 | 4 | 47 | 11 | 43 | induced potent peptide-specific CTL | 3 | –
5 | M R IISAVVGIL A A V C S A (MRIISAVVGILAAVCSA) [HER654-662-IN-ES] | – | – | – | – | – | – | – | Release of IFNγ by CTL, T2 cells loaded with the peptide (T2 cells [3]; Day 1 after peptide loading): 2929 pg/mL; Release of IFNγ by CTL, T2 cells loaded with the peptide (T2 cells [3]; Day 3 after peptide loading): 2773 pg/mL; Release of IFNγ by CTL, T2 cells loaded with the peptide (T2 cells [3]; Day 5 after peptide loading): 1699 pg/mL; Release of IFNγ by CTL, T2 cells loaded with the peptide (T2 cells [3]; Day 8 after peptide loading): 671 pg/mL; Release of IFNγ by CTL, MDA-MB-231 cells loaded with the peptide ([4]; Day 1 after peptide loading): 2727 pg/mL; Release of IFNγ by CTL, MDA-MB-231 cells loaded with the peptide ([4]; Day 3 after peptide loading): 2666 pg/mL; Release of IFNγ by CTL, MDA-MB-231 cells loaded with the peptide ([4]; Day 5 after peptide loading): 1708 pg/mL; Release of IFNγ by CTL, MDA-MB-231 cells loaded with the peptide ([4]; Day 8 after peptide loading): 667 pg/mL; Percent 51Cr Released From ICP47-transfected MCF7 cells loaded with the construct ([5]; E:T 20:1): 2%; Percent 51Cr Released From ICP47-transfected MCF7 cells loaded with the construct ([5]; E:T 40:1): 2%
6 | anti-HLA-A2 antibody BB7.2 | – | – | – | – | – | – | – | Percent LDH released from peptide-pulsed K562-A2 +BB7.2 (CTL specific for STEAP130-138 -1F/3W/9V; 74 without antibody) (percent LDH released) (HLA-A2.1 (human)): 1; Percent LDH released from peptide-pulsed K562-A2 +BB7.2 (CTL specific for STEAP130-138 -1F; 75 without antibody) (percent LDH released) (HLA-A2.1 (human)): 2; Percent LDH released from peptide-pulsed K562-A2 +BB7.2 (CTL specific for STEAP130-138 -3W; 63 without antibody) (percent LDH released) (HLA-A2.1 (human)): 5; Percent LDH released from peptide-pulsed K562-A2 +BB7.2 (CTL specific for STEAP130-138 -9V; 53 without antibody) (percent LDH released) (HLA-A2.1 (human)): 1; Percent LDH released from peptide-pulsed K562-A2 +BB7.2 (CTL specific for STEAP130-138; 63 without antibody) (percent LDH released) (HLA-A2.1 (human)): 2; Percent LDH released from peptide-pulsed K562-A2 +BB7.2 (CTL specific for STEAP192-200; 56 without antibody) (percent LDH released) (HLA-A2.1 (human)): 7
7 | MRYMILGLLALAAVCSA IISAVVGIL (MRYMILGLLALAAVCSAIISAVVGIL) [ES-HER654-662] | – | – | – | – | – | – | – | Release of IFNγ by CTL, T2 cells loaded with the peptide (T2 cells [3]; Day 1 after peptide loading): 2667 pg/mL; Release of IFNγ by CTL, T2 cells loaded with the peptide (T2 cells [3]; Day 3 after peptide loading): 2518 pg/mL; Release of IFNγ by CTL, T2 cells loaded with the peptide (T2 cells [3]; Day 5 after peptide loading): 1245 pg/mL; Release of IFNγ by CTL, T2 cells loaded with the peptide (T2 cells [3]; Day 8 after peptide loading): 581 pg/mL; Release of IFNγ by CTL, MDA-MB-231 cells loaded with the peptide ([4]; Day 1 after peptide loading): 2767 pg/mL; Release of IFNγ by CTL, MDA-MB-231 cells loaded with the peptide ([4]; Day 3 after peptide loading): 2622 pg/mL; Release of IFNγ by CTL, MDA-MB-231 cells loaded with the peptide ([4]; Day 5 after peptide loading): 1445 pg/mL; Release of IFNγ by CTL, MDA-MB-231 cells loaded with the peptide ([4]; Day 8 after peptide loading): 578 pg/mL; Percent 51Cr Released From ICP47-transfected MCF7 cells loaded with the construct ([5]; E:T 20:1): 2%; Percent 51Cr Released From ICP47-transfected MCF7 cells loaded with the construct ([5]; E:T 40:1): 3%
8 | MA HLYQGCQVV AAAAAG (MAHLYQGCQVVAAAAAG) [HER48-56-IN-AF] | – | – | – | – | – | – | – | Recognition by CTL of T2 cells loaded with the peptide (51Cr-release) (T2 cells [6]): effective; Release of IFNγ by CTL, T2 cells loaded with the peptide (T2 cells [3]; Day 1 after peptide loading): 3488 pg/mL; Release of IFNγ by CTL, T2 cells loaded with the peptide (T2 cells [3]; Day 3 after peptide loading): 1229 pg/mL; Release of IFNγ by CTL, T2 cells loaded with the peptide (T2 cells [3]; Day 5 after peptide loading): 1010 pg/mL; Release of IFNγ by CTL, T2 cells loaded with the peptide (T2 cells [3]; Day 8 after peptide loading): 718 pg/mL
9 | FLPGVIAAI [STEAP130-138 - 1F] | 73 | −1 | 69 | 2 | 75 | induced potent peptide-specific CTL | 4 | –
10 | FLWGVIAAV [STEAP130-138 - 1F/3W/9V] | 84 | 1 | 75 | 1 | 74 | induced potent peptide-specific CTL | 1 | –
11 | YLPGVIAAI (listed as Homo sapiens) [STEAP130-138] | 53 | −1 | 37 | 2 | 63 | induced potent peptide-specific CTL | 1 | –
12 | LLNWAYQQV (listed as Homo sapiens) [STEAP192-200] | 43 | 18 | 30 | 7 | 56 | induced potent peptide-specific CTL | 8 | Induction of peptide-specific CTL in patients with prostate cancer ([2]; number of patients): three out of three
